Test [1] concerns the target T1, Muscarinic acetylcholine receptor M1 (Homo sapiens, UniProt P11229).
T1 sequence (P11229 whole entry): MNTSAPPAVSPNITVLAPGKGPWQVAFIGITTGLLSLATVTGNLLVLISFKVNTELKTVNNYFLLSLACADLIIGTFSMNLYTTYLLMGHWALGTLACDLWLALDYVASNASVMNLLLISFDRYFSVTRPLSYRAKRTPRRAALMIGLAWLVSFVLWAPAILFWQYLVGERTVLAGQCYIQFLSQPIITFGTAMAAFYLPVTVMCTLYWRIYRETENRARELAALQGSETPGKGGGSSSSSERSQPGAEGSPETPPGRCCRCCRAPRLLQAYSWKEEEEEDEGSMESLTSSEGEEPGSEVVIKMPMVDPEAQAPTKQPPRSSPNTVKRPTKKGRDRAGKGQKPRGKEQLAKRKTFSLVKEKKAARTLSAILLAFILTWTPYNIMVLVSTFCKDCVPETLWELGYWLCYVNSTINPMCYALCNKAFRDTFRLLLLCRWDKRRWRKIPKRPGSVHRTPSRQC
It counts as functional, cell-based.

The target in test [2] is T1, Muscarinic acetylcholine receptor M1. It counts as functional, cell-based. This is another data set of the same source.
Another test has as its target D(1A) dopamine receptor (Homo sapiens, UniProt P21728).
The target of test [3] is Voltage-dependent L-type calcium channel subunit alpha-1C (Homo sapiens, UniProt Q13936). It counts as functional, cell-based.
Another test deals with T2, Thromboxane A2 receptor (Homo sapiens, UniProt P21731).
T2 sequence (P21731 whole entry): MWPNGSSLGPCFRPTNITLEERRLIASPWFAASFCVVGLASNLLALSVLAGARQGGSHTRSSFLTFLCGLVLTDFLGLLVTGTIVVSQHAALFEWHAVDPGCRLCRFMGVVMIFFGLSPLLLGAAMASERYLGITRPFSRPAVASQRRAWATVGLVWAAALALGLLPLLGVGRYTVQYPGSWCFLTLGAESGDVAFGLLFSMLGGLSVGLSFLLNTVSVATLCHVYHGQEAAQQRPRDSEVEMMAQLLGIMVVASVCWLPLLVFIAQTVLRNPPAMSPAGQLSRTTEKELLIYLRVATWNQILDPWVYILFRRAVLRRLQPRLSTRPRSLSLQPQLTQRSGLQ
In kind it is functional.

Test [4] has as its target Vascular endothelial growth factor receptor 2 (Homo sapiens, UniProt P35968). It counts as functional.
Test [5] concerns the target Epidermal growth factor receptor (Homo sapiens, UniProt P00533). In kind it is functional.
Note: assay procedure not described here.

Chain of Epidermal growth factor receptor (P00533 whole entry): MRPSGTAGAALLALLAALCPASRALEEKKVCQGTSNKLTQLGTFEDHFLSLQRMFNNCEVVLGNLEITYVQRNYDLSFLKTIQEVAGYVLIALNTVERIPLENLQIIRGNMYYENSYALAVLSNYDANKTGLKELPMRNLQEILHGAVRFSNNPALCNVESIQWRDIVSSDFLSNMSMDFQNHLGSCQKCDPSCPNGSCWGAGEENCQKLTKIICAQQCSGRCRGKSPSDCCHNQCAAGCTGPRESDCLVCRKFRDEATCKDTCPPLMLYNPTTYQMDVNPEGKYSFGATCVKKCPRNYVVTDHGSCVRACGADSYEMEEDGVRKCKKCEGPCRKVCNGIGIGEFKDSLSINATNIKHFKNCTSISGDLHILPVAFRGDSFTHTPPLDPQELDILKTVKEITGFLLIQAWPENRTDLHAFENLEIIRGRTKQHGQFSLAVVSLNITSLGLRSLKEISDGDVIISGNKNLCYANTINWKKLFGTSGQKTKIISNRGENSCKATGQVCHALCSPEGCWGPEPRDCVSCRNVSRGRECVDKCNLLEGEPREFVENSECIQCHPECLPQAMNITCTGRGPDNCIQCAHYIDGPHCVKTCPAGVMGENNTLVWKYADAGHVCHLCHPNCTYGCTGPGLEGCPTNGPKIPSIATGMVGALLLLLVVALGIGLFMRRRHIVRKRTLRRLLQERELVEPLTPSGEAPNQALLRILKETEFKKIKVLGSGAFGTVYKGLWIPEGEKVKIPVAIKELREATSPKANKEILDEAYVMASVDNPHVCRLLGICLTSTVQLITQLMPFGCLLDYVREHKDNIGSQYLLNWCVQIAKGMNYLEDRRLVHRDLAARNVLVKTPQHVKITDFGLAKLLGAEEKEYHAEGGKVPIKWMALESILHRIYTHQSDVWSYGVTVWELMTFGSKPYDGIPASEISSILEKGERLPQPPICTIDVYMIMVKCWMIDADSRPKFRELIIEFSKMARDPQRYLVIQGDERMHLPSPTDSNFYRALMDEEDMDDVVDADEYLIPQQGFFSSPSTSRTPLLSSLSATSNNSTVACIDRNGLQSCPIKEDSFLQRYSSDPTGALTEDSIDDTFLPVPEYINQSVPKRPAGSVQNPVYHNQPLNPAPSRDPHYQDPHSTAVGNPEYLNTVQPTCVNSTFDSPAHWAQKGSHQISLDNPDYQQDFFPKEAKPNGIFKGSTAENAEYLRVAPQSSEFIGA
Chain of D(1A) dopamine receptor (P21728 whole entry): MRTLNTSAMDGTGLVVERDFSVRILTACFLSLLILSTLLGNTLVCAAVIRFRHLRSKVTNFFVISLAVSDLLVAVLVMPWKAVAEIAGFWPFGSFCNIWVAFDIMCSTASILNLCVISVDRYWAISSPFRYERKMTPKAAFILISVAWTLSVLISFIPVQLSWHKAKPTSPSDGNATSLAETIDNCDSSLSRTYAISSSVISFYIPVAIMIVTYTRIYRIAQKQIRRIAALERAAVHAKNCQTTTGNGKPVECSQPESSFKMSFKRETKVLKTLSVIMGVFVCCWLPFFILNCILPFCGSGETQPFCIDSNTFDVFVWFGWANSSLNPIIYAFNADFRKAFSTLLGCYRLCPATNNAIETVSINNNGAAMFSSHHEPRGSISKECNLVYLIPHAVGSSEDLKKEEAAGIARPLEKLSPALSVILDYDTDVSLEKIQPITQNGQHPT
Chain of Vascular endothelial growth factor receptor 2 (P35968 whole entry): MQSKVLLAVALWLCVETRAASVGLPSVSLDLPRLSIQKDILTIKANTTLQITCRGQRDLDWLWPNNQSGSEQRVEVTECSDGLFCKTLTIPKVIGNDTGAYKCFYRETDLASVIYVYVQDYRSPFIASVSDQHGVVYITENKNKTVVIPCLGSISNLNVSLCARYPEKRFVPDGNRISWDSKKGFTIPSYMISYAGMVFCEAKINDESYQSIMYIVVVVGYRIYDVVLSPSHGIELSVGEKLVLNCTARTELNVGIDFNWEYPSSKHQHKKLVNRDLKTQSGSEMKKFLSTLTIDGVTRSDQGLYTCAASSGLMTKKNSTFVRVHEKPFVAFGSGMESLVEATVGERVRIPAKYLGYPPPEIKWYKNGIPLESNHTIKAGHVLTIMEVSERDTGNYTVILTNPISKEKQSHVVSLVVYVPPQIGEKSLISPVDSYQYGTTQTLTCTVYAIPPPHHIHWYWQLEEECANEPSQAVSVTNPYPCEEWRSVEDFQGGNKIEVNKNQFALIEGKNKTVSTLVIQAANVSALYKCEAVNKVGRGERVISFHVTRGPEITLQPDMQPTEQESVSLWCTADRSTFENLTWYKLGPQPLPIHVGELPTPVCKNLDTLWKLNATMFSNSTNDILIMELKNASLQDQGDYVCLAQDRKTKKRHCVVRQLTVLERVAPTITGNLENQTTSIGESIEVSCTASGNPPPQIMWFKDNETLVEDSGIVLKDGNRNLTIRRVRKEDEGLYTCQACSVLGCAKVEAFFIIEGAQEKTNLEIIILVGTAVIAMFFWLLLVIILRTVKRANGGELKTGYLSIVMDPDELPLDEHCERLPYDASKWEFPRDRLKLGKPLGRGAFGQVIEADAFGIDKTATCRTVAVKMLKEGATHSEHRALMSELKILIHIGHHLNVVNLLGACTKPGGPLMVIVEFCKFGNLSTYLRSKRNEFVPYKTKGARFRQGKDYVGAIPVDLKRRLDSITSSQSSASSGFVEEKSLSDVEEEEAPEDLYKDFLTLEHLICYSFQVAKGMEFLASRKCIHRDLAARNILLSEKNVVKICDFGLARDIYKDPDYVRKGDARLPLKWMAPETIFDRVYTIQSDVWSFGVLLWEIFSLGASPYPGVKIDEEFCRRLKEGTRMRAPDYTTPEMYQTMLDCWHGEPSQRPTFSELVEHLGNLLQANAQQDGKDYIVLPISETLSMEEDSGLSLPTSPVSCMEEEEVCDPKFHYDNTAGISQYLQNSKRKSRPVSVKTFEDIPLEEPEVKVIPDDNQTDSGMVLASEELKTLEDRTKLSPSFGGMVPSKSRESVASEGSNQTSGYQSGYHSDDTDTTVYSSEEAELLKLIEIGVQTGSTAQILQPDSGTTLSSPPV

With `C[N+]1(C)CCC(=C(c2ccccc2)c2ccccc2)CC1`, the AC50 (usually the midpoint of the concentration-response curve, whichever way the signal moves) was greater than 30 µM in test [1] and 0.12 µM in test [2]. For `CNCCc1ccc(OC(=O)C(C)C)c(OC(=O)C(C)C)c1` [IBOPAMINE], the AC50 at D(1A) dopamine receptor is greater than 30 µM. For `Cc1cccc(C)c1NC(=O)CC12CCCN1CCC2` [PILSICAINIDE], the AC50 in test [3] was greater than 50 µM. Turning to `CC(C)c1cccc(C(C)C)c1O` [PROPOFOL], the AC50 (on Thromboxane A2 receptor; in test [4]; in test [5]) was greater than 30 µM each time.

The values above are taken from ChEMBL document CHEMBL5291721, “A preclinical secondary pharmacology resource illuminates target-adverse drug reaction associations of marketed drugs” (Nat Commun, 2023).
